Data reported in BindingDB's records for doi:10.1016/s0960-894x(99)00632-0 (3-Dimensional Pharmaceuticals, 2000).

Experiment: Compound was evaluated for the inhibitory constant against human Serine protease chymotrypsin

Compound: Cc1cc(OCCC=NNC(=N)N)cc(OS(=O)(=O)c2ccccc2OC(F)(F)F)c1 [3-[((3E)-3-{[(E)-amino(imino)methyl]hydrazono}propyl)oxy]-5-methylphenyl 2-(trifluoromethoxy)benzenesulfonate]
- Ki: 88 µM
